The values below are quoted from earlier work in US20010053381A1, “System and method for treating kidney diseases in diabetic and non-diabetic patients” (priority 2000, published 2001).

For series [1], the system named is patients with type 1 DM and diabetic nephropathy.

Regarding insulin [CIIIT], in series [1] (37 months, type 1 DM patients), the “progression of overt diabetic nephropathy” value was “arrest or appreciably reduce the progression”. Also, the “Creatinine clearance at baseline” value in series [1] (baseline, 31 patients with type 1 DM and diabetic nephropathy) was 46.1 ± 3.0 mL/min. Moreover, in series [1] (end of observation period (37 months), 31 patients with type 1 DM and diabetic nephropathy), the “Creatinine clearance at the end of the observation period” value is 46.0 ± 3.9 mL/min. The “hemoglobin Alc levels, after study period” value in series [1] (value after decline during the study period, P=0.0062) was 7.6±0.3%. The “hemoglobin Alc levels, start of study period” value in series [1] (value before decline, patients with type 1 DM and diabetic nephropathy) is on record as 8.6±0.6%. Besides, in the series on patients with type 1 DM, the blood pressure control entry was “improve blood pressure control substantially” and the “reduction of antihypertensive medication requirements” value is reported as 46%.
